The structures appear in SMILES notation.

The values that follow come from patent publication US7671074B2, “Sulfonylguanidine compounds and pharmaceutical uses thereof” (Gruenenthal GmbH, priority 2000, dated 2010).

In one experiment the target is gabapentin binding site. Kind of experiment: Binding assay: displacement of gabapentin from its binding site. Conditions: displacement of gabapentin from its binding site. The procedure:
Gabapentin was used in a binding assay in order to check the binding and affinities of the selected compounds. The affinity of the compounds according to the invention was measured via the displacement of gabapentin from its binding site.
On to `CC(C)c1ccc(S(=O)(=O)/N=C(\N)NCc2ccccn2)cc1` [Example 34, N-{amino[(pyridin-2-yl-methyl)-amino]-methylene}-4-isopropylbenzenesulfonamide], for which the IC50 turned out to be 33 nM.

Take `N/C(=N\S(=O)(=O)c1ccc(Br)cc1)NCc1ccccn1` [Example 32, N-{amino[(pyridin-2-yl-methyl)-amino]-methylene}-4-bromobenzenesulfonamide]: the IC50 is 218 nM.

Consider `N/C(=N\S(=O)(=O)c1cccc2ccccc12)NCc1ccccn1` [Example 44, Naphthalene-1-sulfonic acid amino-[(pyridin-2-yl-methyl)-amino]-methylene amide], for which the IC50 was 5300 nM.

The compound `N/C(=N\S(=O)(=O)c1ccc(I)cc1)NCc1ccccn1` [Example 35, N-{amino[(pyridin-2-yl-methyl)-amino]-methylene}-4-iodobenzenesulfonamide] displayed an IC50 of 50 nM.

`Cc1c(S(=O)(=O)/N=C(\N)NCc2ccccn2)sc2ccc(Cl)cc12` [Example 48, 5-chloro-3-methylbenzo[b]thiophene-2-sulfonic acid amino-[(pyridin-2-yl-methyl)-amino]-methylene amide] had an IC50 of 136 nM.

Compound `CCCc1ccc(S(=O)(=O)/N=C(/N)NCc2cccs2)cc1` [Example 58, N-{amino[(thiophen-2-yl-methyl)-amino]-methylene}-4-propylbenzenesulfonamide] showed a half-inhibitory concentration (IC50) of 1820 nM.

In turn, `CC(C)c1ccc(S(=O)(=O)/N=C(/N)NCc2ccco2)cc1` [Example 54, N-{amino[(furan-2-yl-methyl)-amino]-methylene}-4-isopropylbenzenesulfonamide] registered a 50% inhibitory concentration (IC50) of 3510 nM. This IC50 lies about 1.9-fold higher than the previous one.

Take `CCCc1ccc(S(=O)(=O)/N=C(\N)NCc2ccccn2)cc1` [Example 42, N-{amino[(pyridin-2-yl-methyl)-amino]-methylene}-4-propylbenzenesulfonamide]: the IC50 came to 27 nM. This IC50 lies about 130-fold lower than the previous one.

Take `CCCCc1ccc(S(=O)(=O)/N=C(\N)NCc2ccccn2)cc1` [Example 50, N-{amino[(pyridin-2-yl-methyl)-amino]-methylene}-4-butylbenzenesulfonamide]: the IC50 is 170 nM.

In the case of `COc1ccc(S(=O)(=O)/N=C(\N)NCc2ccccn2)cc1` [Example 43, N-{amino[(pyridin-2-yl-methyl)-amino]-methylene}-4-methoxybenzenesulfonamide], the IC50 came to 634 nM.

`CC(C)c1ccc(S(=O)(=O)/N=C(/N)NCc2cccs2)cc1` [Example 59, N-{amino[(thiophen-2-yl-methyl)-amino]-methylene}-4-isopropylbenzenesulfonamide] displayed a 50% inhibitory concentration (IC50) of 970 nM.

`Cc1ccc(S(=O)(=O)/N=C(\N)NCc2ccccn2)cc1` [Example 1] registered an IC50 of 421 nM.

Regarding `Cc1cc(C)c(S(=O)(=O)/N=C(\N)NCc2ccccn2)c(C)c1` [Example 41, N-{amino[(pyridin-2-yl-methyl)-amino]-methylene}-2,4,6-trimethylbenzenesulfonamide], the IC50 stood at 438 nM.

For the compound `N/C(=N\S(=O)(=O)c1ccc(Cl)c(Cl)c1)NCc1ccccn1` [Example 33, N-{amino[(pyridin-2-yl-methyl)-amino]-methylene}-3,4-dichlorobenzenesulfonamide], the IC50 came out at 1100 nM. This IC50 is about 2.5-fold higher than that of the compound before.

As for `CC(C)(C)c1ccc(S(=O)(=O)/N=C(/N)NCc2ccccn2)cc1` [Example 49, N-{amino[(pyridin-2-yl-methyl)-amino]-methylene}-4-tert.-butylbenzenesulfonamide], the 50% inhibitory concentration (IC50) is 90 nM.

The compound `CC(C)(C)c1ccc(S(=O)(=O)/N=C(/N)NCc2cccs2)cc1` [Example 60, N-{amino[(thiophen-2-yl-methyl)-amino]-methylene}-4-tert.-butylbenzenesulfonamide] showed an IC50 of 5690 nM.

`N/C(=N\S(=O)(=O)c1ccc2ccccc2c1)NCc1ccccn1` [Example 37, Naphthalene-2-sulfonic acid amino-[(pyridin-2-yl-methyl)-amino]-methylene amide]: the IC50 was determined as 122 nM.

Turning to `N/C(=N\S(=O)(=O)c1cccc2cccnc12)NCc1ccccn1` [Example 47, Quinoline-8-sulfonic acid amino-[(pyridin-2-yl-methyl)-amino]-methylene amide], the IC50 amounted to 2800 nM.

Regarding `CCCc1ccc(S(=O)(=O)/N=C(/N)NCc2ccco2)cc1` [Example 55, N-{amino[(furan-2-yl-methyl)-amino]-methylene}-4-propylbenzenesulfonamide], the IC50 turned out to be 3200 nM. This IC50 and that of the compound before are within 1.5-fold of each other.

The same experiment, now with this note: inhibition/displacement of gabapentin; concentration 10^−5 μM [sic].
Consider `Cl.N/C(=N\S(=O)(=O)c1ccc(F)cc1)NCc1ccccn1` [Example 40, N-{amino[(pyridin-2-yl-methyl)-amino]-methylene}-4-fluorobenzenesulfonamide], for which the Percent inhibition came out at 21%.

Compound `Cl.N/C(=N/S(=O)(=O)c1ccc(Cl)cc1)NCc1cccs1` [Example 61, N-{amino[(thiophen-2-yl-methyl)-amino]-methylene}-4-chlorobenzenesulfonamide] registered a Percent inhibition of 24%.

`CC(=O)Nc1ccc(S(=O)(=O)/N=C(\N)NCc2ccccn2)cc1.Cl` [Example 39, N-[4-({amino-[(pyridin-2-yl-methyl)-amino]-methylene}-sulfamoyl)-phenyl]-acetamide] yielded a Percent inhibition of 27%.

Regarding `CC(C)(C)c1ccc(S(=O)(=O)/N=C(/N)NCc2ncccn2)cc1.Cl` [Example 51], the Percent inhibition is listed as 5%.

For the compound `CCCCc1ccc(S(=O)(=O)/N=C(/N)NCc2ccco2)cc1.Cl` [Example 52, N-{amino[(furan-2-yl-methyl)-amino]-methylene}-4-butylbenzenesulfonamide], the Percent inhibition was determined as 47%.

On to `Cl.N/C(=N\S(=O)(=O)c1ccccc1)NCc1ccccn1` [Example 36, N-{amino[(pyridin-2-yl-methyl)-amino]-methylene}-benzenesulfonamide], for which the Percent inhibition is listed as 17%.

`N/C(=N\S(=O)(=O)c1cccs1)NCc1ccccn1` [Example 46, Thiophene-2-sulfonic acid amino-[(pyridin-2-yl-methyl)-amino]-methylene amide] yielded a Percent inhibition of 36%.

In the case of `Cc1ccc(S(=O)(=O)/N=C(\N)NCc2ccccc2)cc1` [Example 2, N-[amino-(benzylaminomethylene)]-4-methylbenzene-sulfonamide], the Percent inhibition is reported as 69.7%.

`Cc1ccc(S(=O)(=O)/N=C(/N)NCc2ccco2)cc1.Cl` [Example 53, N-{amino[(furan-2-yl-methyl)-amino]-methylene}-4-methylbenzenesulfonamide] registered a Percent inhibition of 26%.

`Cc1ccc(S(=O)(=O)/N=C(\N)NCc2ccccn2)cc1` [Example 1]: the Percent inhibition is listed as 82%.

With `Cl.N/C(=N/S(=O)(=O)c1ccc(Cl)cc1)NCc1ccco1` [Example 63, N-{amino[(furan-2-yl-methyl)-amino]-methylene}-4-chlorobenzenesulfonamide], the Percent inhibition was 23.5%.

Regarding `CCCCc1ccc(S(=O)(=O)/N=C(/N)NCc2cccs2)cc1.Cl` [Example 57, N-{amino[(thiophen-2-yl-methyl)-amino]-methylene}-4-butylbenzenesulfonamide], the Percent inhibition worked out at 41%.

Turning to `Cc1ccc(S(=O)(=O)/N=C(/N)NCc2cccs2)cc1.Cl` [Example 62, N-{amino[(thiophen-2-yl-methyl)-amino]-methylene}-4-methylbenzenesulfonamide], the Percent inhibition is 29%.

Compound `Cc1cccc(S(=O)(=O)/N=C(\N)NCc2ccccn2)c1` [Example 45, N-{amino[(pyridin-2-yl-methyl)-amino]-methylene}-3-methylbenzenesulfonamide] yielded a Percent inhibition of 35%.

`CC(C)(C)c1ccc(S(=O)(=O)/N=C(/N)NCc2ccco2)cc1.Cl` [Example 56, N-{amino[(furan-2-yl-methyl)-amino]-methylene}-4-tert.-butylbenzenesulfonamide] came in with a Percent inhibition of 49%.

A further experiment deals with male Sprague-Dawley rats with L5/L6 spinal nerve ligatures. Kind of experiment: In vivo experiments according to Chung (spinal nerve ligation, tactile withdrawal threshold). Also on record: species or system rat. Conditions: Rattus norvegicus, 0.5 h; rats, Chung model, tactile withdrawal thresholds 30 minutes after administration, ipsilateral side; read-out: ED50. The procedure: In male Sprague-Dawley rats spinal nerve ligatures were applied according to Kim and Chung (1992) to the left L5/L6 spinal nerves. At the same time spinal catheters were implanted according to Pogatzki et al. ^6 (2000). 4 to 6 days after the operation the tactile threshold baseline (withdrawal thresholds) was measured on the ipsilateral and contra lateral rear paw by an electronic vonFrey anaesthesiometer (IITC Life Science, USA). […] After the test and baseline measurement, gabapentin and substances according to the invention were administered. The tactile withdrawal thresholds were measured 30 minutes after administration. The results are expressed as ED50 and % maximal possible effect (% MPE; % of the maximal possible effect) on the ipsilateral side, in which the baseline is taken as 0% and the withdrawal threshold of a control group is taken as 100% MPE.
Consider `Cc1ccc(S(=O)(=O)/N=C(\N)NCc2ccccn2)cc1` [Example 1], for which the 50% effective dose (ED50) was about 25 mg/kg.

Staying with this experiment, now noted: Rattus norvegicus, read-out:; table title: Analgesia testing in rats according to Chung; further investigation.
Consider `Cc1ccc(S(=O)(=O)/N=C(\N)NCc2ccccn2)cc1` [Example 1], for which the median effective dose (ED50) was 10 to 20 mg/kg.

The same experiment, now with this note: rats, Chung model, ED50 compared with gabapentin.
Consider `Cc1ccc(S(=O)(=O)/N=C(\N)NCc2ccccn2)cc1` [Example 1], for which the “superiority to gabapentin (factor)” value is reported as 4.

Staying with this experiment, now noted: rats, Chung test, further investigation, result in words.
Take `Cc1ccc(S(=O)(=O)/N=C(\N)NCc2ccccn2)cc1` [Example 1]: the “effect compared with gabapentin” value is listed as “superior in their effect to gabapentin”.

The same experiment, now with this note: rats, further investigation, result in words.
Take `Cc1ccc(S(=O)(=O)/N=C(\N)NCc2ccccn2)cc1` [Example 1]: the “effect in the Chung test” value was “show an effect”.

The IC50 is the concentration needed to halve the response being measured. Higher therefore signals lower potency. Broadly, the ED50 is the dose at which the effect has come halfway, by size or by number of responders.
